Tested on: Human peripheral blood mononuclear cells (PBMCs) as Responder cells, RPMI 1788 Stimulator cells
Test: Mixed Lymphocyte Reaction (MLR) test
Assay type: cell-based
Details: Homo sapiens, RPMI-1788, lowest concentration giving 50% inhibition of the MLR; 6 days coculture, 3H-thymidine incorporation
Procedure: Human peripheral blood mononuclear cells (PBMCs) were isolated from buffy coats, obtained from healthy blood donors by Ficoll (Lymphoprep, Axis-Shield PoC AS, Oslo, Norway) density-gradient centrifugation. The cells at the Ficoll-plasma interface were washed three times and used as “Responder” cells. RPMI 1788 (ATCC, N^o CCL-156) cells were treated with mitomycin C (Kyowa, Nycomed, Brussel, Belgium) and used as “Stimulator” cells. Responder cells (0.12×10^6), Stimulator cells (0.045×10^6) and compounds (in different concentrations) were cocultured for 6 days in RPMI 1640 medium (BioWhittaker, Lonza, Belgium) supplemented with 10% fetal calf serum, 100 U/ml Geneticin (Gibco, LifeTechnologies, UK). Cells were cultured in triplicate in flat-bottomed 96-well microtiter tissue culture plates (TTP, Switzerland). After 5 days, cells were pulsed with 1 μCi of methyl-^3H thymidine (MP Biomedicals, USA), harvested 18 h later on glass filter paper and counted. Proliferation values were expressed as counts per minute (cpm), and converted to % inhibition with respect to a blank MLR test (identical but without added compound). […]

SMILES	IC50
CCCSc1nc2c(N3CCN(C(=O)COc4ccc(Cl)cc4)CC3)nc(N)nc2[nH]1 [Example 425, 1-(4-(2-amino-8-(propylthio)-9H-purin-6-yl)piperazin-1-yl)-2-(4-chlorophenoxy)ethanone]	1.02 µM
Nc1nc(N2CCN(C(=O)COc3ccc(Cl)cc3)CC2)c2nc(-c3ccc(F)cc3)oc2n1 [Example 169, 1-(4-(5-amino-2-(4-fluorophenyl)oxazolo[5,4-d]pyrimidin-7-yl)piperazin-1-yl)-2-(4-chlorophenoxy)ethanone]	3 µM
COCCN1CCN(c2nc(N)nc3oc(-c4ccc(F)cc4)nc23)CC1 [Example 192, 5-amino-2-(4-fluorophenyl)-7-[4-(2-methoxyethyl)-piperazin-1-yl]-oxazolo[5,4-d]pyrimidine]	> 10 µM
Nc1nc(N2CCN(C(=O)COc3ccc(OC(F)(F)F)cc3)CC2)c2nc(-c3cccnc3)sc2n1 [Example 273, 1-(4-(5-amino-2-(pyridin-3-yl)thiazolo[5,4-d]pyrimidin-7-yl)piperazin-1-yl)-2-(4-trifluoromethoxyphenoxy)ethanone]	0.045 µM
Nc1nc(N2CCN(C(=O)CCc3ccccc3)CC2)c2nc(-c3ccc(F)cc3)[nH]c2n1 [Example 438, 1-(4-(2-amino-8-(4-fluorophenyl)-9H-purin-6-yl)piperazin-1-yl)-3-phenylpropan-1-one]	2.58 µM
Nc1nc(N2CCN(C(=O)c3cccnc3)CC2)c2cc(-c3ccc(F)cc3)sc2n1 [Example 346, (4-(2-amino-6-(4-fluorophenyl)thieno[2,3-d]pyrimidin-4-yl)piperazin-1-yl)(pyridin-3-yl)methanone]	> 10 µM
Nc1nc(N2CCOCC2)c2nc(Cc3ccc(F)cc3)sc2n1 [Example 34, 2-(4-fluorobenzyl)-7-morpholino-thiazolo[5,4-d]pyrimidin-5-amine]	> 10 µM
Nc1nc(N2CCN(C(=O)Cc3ccc(Cl)cc3)CC2)c2nc(CCc3ccc(F)cc3)sc2n1 [Example 132, 5-amino-2-[2-(4-fluorophenyl)ethyl]-7-(4-[2-(4-chlorophenyl)acetyl]piperazin-1-yl)-thiazolo[5,4-d]pyrimidine]	0.44 µM
CN(C(=O)CN1CCN(c2nc(N)nc3sc(CCc4ccc(F)cc4)nc23)CC1)c1ccccc1 [Example 139, 5-amino-2-[2-(4-fluorophenyl)ethyl]-7-(4-[(methylphenylcarbamoyl)-methyl]piperazin-1-yl)-thiazolo[5,4-d]pyrimidine]	3.29 µM
Nc1nc(N2CCN(C(=O)COc3ccc(Cl)cc3Cl)CC2)c2nc(-c3ccc(F)cc3)sc2n1 [Example 212, 1-(4-(5-amino-2-(4-fluorophenyl)thiazolo[5,4-d]pyrimidin-7-yl)piperazin-1-yl)-2-(2,4-dichlorophenoxy)ethanone]	0.375 µM
Nc1nc(N2CCN(C(=O)COc3cccc([N+](=O)[O-])c3)CC2)c2nc(-c3ccc(F)cc3)oc2n1 [Example 193, 5-amino-2-(4-fluorophenyl)-7-(4-[2-(3-nitrophenoxy)acetyl]-piperazin-1-yl)-oxazolo[5,4-d]pyrimidine]	0.7 µM
Nc1nc(N2CCN(C(=O)COc3ccc(Cl)cc3)CC2)c2ccsc2n1 [Example 351, 1-(4-(2-aminothieno[2,3-d]pyrimidin-4-yl)piperazin-1-yl)-2-(4-chlorophenoxy)ethanone]	1.23 µM
Nc1nc(N[C@H]2CCN(C(=O)COc3ccc(Cl)cc3)C2)c2nc(CCc3ccc(F)cc3)sc2n1 [Example 147, 5-amino-2-[2-(4-fluorophenyl)ethyl]-7-(1-(4-chlorophenoxyacetyl)pyrrolidin-3-(S)-ylamino)-thiazolo[5,4-d]pyrimidine]	4.52 µM
Nc1nc(N2CCN(C(=O)COc3ccc(Cl)cc3)CC2)c2nc(C(c3ccc(F)cc3)C3CCCC3)sc2n1 (stereo not drawn) [Example 151, 5-amino-2-[cyclopentyl-(4-fluorophenyl)methyl]-7-(4-[2-(4-chlorophenoxy)acetyl]piperazin-1-yl)thiazolo[5,4-d]pyrimidine]	> 10 µM
Cc1cccc(N2CCN(c3nc(N)nc4sc(-c5ccc(F)cc5)nc34)CC2)c1 [Example 35, 2-(4-fluorophenyl)-7-(4-m-tolylpiperazin-1-yl)-thiazolo[5,4-d]pyrimidin-5-amine]	> 10 µM
Nc1nc(N2CCN(C(=O)COc3cccc(Cl)c3)CC2)c2nc(CCc3ccc(F)cc3)sc2n1 [Example 228, 1-(4-(5-amino-2-(4-fluorophenethyl)thiazolo[5,4-d]pyrimidin-7-yl)piperazin-1-yl)-2-(3-chlorophenoxy)ethanone]	1.72 µM

SMILES	IC50
COc1cccc(-c2nc3c(N4CCN(C(=O)COc5ccc(Cl)cc5)CC4)nc(N)nc3s2)c1 [Example 124, 5-amino-7-[4-(4-chlorophenoxyacetyl)piperazin-1-yl]-2-(3-methoxyphenyl)thiazolo[5,4-d]pyrimidine]	0.12 µM
Nc1nc(N2CCN(C(=O)COc3ccc(OC(F)(F)F)cc3)CC2)c2nc(CCc3ccc(F)cc3)sc2n1 [Example 226, 1-(4-(5-amino-2-(4-fluorophenethyl)thiazolo[5,4-d]pyrimidin-7-yl)piperazin-1-yl)-2-(4-(trifluoromethoxy)phenoxy)ethanone]	7.12 µM
Nc1nc(N2CCN(C(=O)COc3ccc(Br)cc3)CC2)c2cc(-c3ccccc3)sc2n1 [Example 372, 1-(4-(2-amino-6-phenylthieno[2,3-d]pyrimidin-4-yl)piperazin-1-yl)-2-(4-bromophenoxy)ethanone]	0.32 µM
CN(C(=O)CN1CCN(c2nc(N)nc3oc(CCc4ccc(F)cc4)nc23)CC1)c1ccccc1 [Example 198, 5-amino-2-[2-(4-fluorophenyl)ethyl]-7-(4-[(methylphenyl-carbamoyl)methyl]piperazin-1-yl)-oxazolo[5,4-d]pyrimidine]	> 10 µM
COc1ccc(OCC(=O)N2CCN(c3nc(N)nc4sc(-c5ccc(F)cc5)nc34)CC2)cc1 [Example 234, 1-(4-(5-amino-2-(4-fluorophenyl)thiazolo[5,4-d]pyrimidin-7-yl)piperazin-1-yl)-2-(4-methoxyphenoxy)ethanone]	0.037 µM
Nc1nc(N2CCN(C(=O)COc3ccc(Cl)cc3)CC2)c2nc(-c3ccc(F)cc3)[nH]c2n1 [Example 389, 1-(4-(2-amino-8-(4-fluorophenyl)-9H-purin-6-yl)piperazin-1-yl)-2-(4-chlorophenoxy)ethanone]	0.81 µM
Nc1nc(N2CCN(C(=O)COc3ccc(Cl)cc3)CC2)c2cc(-c3ccc(F)cc3)sc2n1 [Example 326, 1-(4-(2-amino-6-(4-fluorophenyl)thieno[2,3-d]pyrimidin-4-yl)piperazin-1-yl)-2-(4-chlorophenoxy)ethanone]	0.7 µM
CC(C)(C)c1nc2c(N3CCN(C(=O)COc4ccc(Cl)cc4)CC3)nc(N)nc2[nH]1 [Example 399, 1-(4-(2-amino-8-tert-butyl-9H-purin-6-yl)piperazin-1-yl)-2-(4-chlorophenoxy)ethanone]	6.31 µM
Nc1nc(N2CCN(C(=O)COc3ccc(Cl)cc3)CC2)c2nc(C3CCCCC3)sc2n1 [Example 120, 5-amino-7-[4-(4-chlorophenoxyacetyl)piperazin-1-yl]-2-cyclohexylthiazolo[5,4-d]pyrimidine]	0.83 µM
Nc1nc(N2CCN(C(=O)COc3ccc(F)cc3)CC2)c2cc(-c3ccccc3)sc2n1 [Example 370, 1-(4-(2-amino-6-phenylthieno[2,3-d]pyrimidin-4-yl)piperazin-1-yl)-2-(4-fluorophenoxy)ethanone]	0.066 µM
Nc1nc(N2CC[C@@H](NC(=O)c3ccc(Cl)cc3)C2)c2nc(CCc3ccc(F)cc3)sc2n1 [Example 144, 5-amino-2-[2-(4-fluorophenyl)ethyl]-7-(3-(R)-(4-chlorobenzoylamino)-pyrrolidin-1-yl)-thiazolo[5,4-d]pyrimidine]	5.13 µM
Cc1cccc(NC(=O)N2CCN(c3nc(N)nc4sc(-c5cccnc5)nc34)CC2)c1 [Example 276, 4-(5-amino-2-(pyridin-3-yl)thiazolo[5,4-d]pyrimidin-7-yl)-N-m-tolylpiperazine-1-carboxamide]	0.001 µM
Nc1nc(N2CCN(C(=O)COc3ccc(Cl)cc3)CC2)c2nc(CCc3cccs3)sc2n1 [Example 154, 5-amino-2-(2-thiophen-2-ylethyl)-7-(4-[2-(4-chloro-phenoxy)acetyl]piperazin-1-yl)thiazolo[5,4-d]pyrimidine]	0.79 µM
Nc1nc(N2CCN(CC(=O)N3CCOCC3)CC2)c2nc(-c3ccc(F)cc3)[nH]c2n1 [Example 411, 2-(4-(2-amino-8-(4-fluorophenyl)-9H-purin-6-yl)piperazin-1-yl)-1-morpholinoethanone]	> 10 µM
Nc1nc(N2CCN(Cc3ccc(F)cc3)CC2)c2nc(-c3ccc(F)cc3)[nH]c2n1 [Example 418, 6-(4-(4-fluorobenzyl)piperazin-1-yl)-8-(4-fluorophenyl)-9H-purin-2-amine]	9.86 µM
Nc1nc(N2CCN(C(=O)COc3ccc(Br)cc3)CC2)c2nc(Cc3ccc(F)cc3)sc2n1 [Example 231, 1-(4-(5-amino-2-(4-fluorobenzyl)thiazolo[5,4-d]pyrimidin-7-yl)piperazin-1-yl)-2-(4-bromophenoxy)ethanone]	0.55 µM

Same assay, conditions: lowest concentration giving 50% inhibition of the MLR; 6 days coculture, 3H-thymidine incorporation

SMILES	IC50
Nc1nc(N2CCN(C(=O)COc3ccc(Cl)cc3)CC2)c2nc(-c3ccc[n+]([O-])c3)sc2n1 [Example 121b, 5-amino-7-[4-(4-chlorophenoxyacetyl)piperazin-1-yl]-2-(N-oxopyridine-3-yl)thiazolo[5,4-d]pyrimidine]	0.83 µM
